# Patent publication US10632125B2, “MTH1 inhibitors for treatment of inflammatory and autoimmune conditions” (THOMAS HELLEDAYS STIFTELSE FÖR MEDICINSK FORSKNING, priority 2014, dated 2020)
# Target: MTH1 (Homo sapiens, UniProt P36639)
# Test: MTH1 enzymatic assay (malachite green, coupled to pyrophosphatase)
# Assay type: biochemical
# Conditions: dGTP 100 μM, MTH1 6 nM; 96- or 384-well format; read-out: IC50
# Experimental: MTH1 catalyzes the hydrolysis of dGTP to dGMP and PPi. By coupling the reaction to pyrophosphatase added in excess PPi is converted to Pi that can be detected by using the malachite green assay reagent. […] 96-well method: Briefly, the compound to be analyzed is diluted in DMSO in a 1:3 dilution series generating 12 different compound concentrations giving a final DMSO concentration of 1% in the assay well. MTH1 diluted in assay buffer (100 mM Tris-acetate, 40 mM NaCl, 10 mM magnesium acetate, 1 mM DTT and 0.005% Tween 20) fortified with E. coli pyrophosphatase (0.2 U/ml) is added to a final concentration of 6 nM. dGTP diluted in assay buffer is added to a final concentration of 100 μM. The reaction mixture is incubated for 15 minutes at 22° C. To 100 μl reaction mixture, 25 μl Malachite green assay regent (0.095% Malachite green in 17% H2SO4, 1.5% Ammonium molybdate, 0.17% Tween 20) is added, followed by incubation with shaking for 15 minutes at 22° C. The absorbance of the assay plate is read at 630 nm using a Hidex Sense Multilabel plate reader. The IC50 value is determined by fitting a dose response curve to the data points using nonlinear regression analysis and the equation Y=Bottom+(Top-Bottom)/(1+10^((Log IC50−X)*HillSlope)), where Y is the read absorbance at 630 nm and X is log [compound].
# 384-Well Method: The compounds to be tested are nano-dispensed, in 11 concentrations, directly in assay plates, with a final DMSO concentration <1%. The protocol and the reaction mixture are the same as for the 96-well assay, with a total reaction volume of 50 μl/well to which 10 μl of Malachite green reagent is added. All additions to the assay plates are made with multidrop.
row,IC50 [nM],SMILES
1,< 200,"CNc1cc(-c2cc(C(F)(F)F)ccc2C)nc(N)n1 [Example 194, 4-N-methyl-6-[2-methyl-5-(trifluoromethyl)phenyl]pyrimidine-2,4-diamine]"
2,< 200,"CNc1cc(-c2cc(Cl)c(C(F)(F)F)cc2C)nc(N)n1 [Example 195, 6-[5-chloro-2-methyl-4-(trifluoromethyl)phenyl]-4-N-methylpyrimidine-2,4-diamine]"
3,< 200,"CNc1cc(-c2cc(C(F)(F)F)ccc2C(F)(F)F)nc(N)n1 [Example 196, 6-[2,5-bis(trifluoromethyl)phenyl]-4-N-methylpyrimidine-2,4-diamine]"
4,< 200,"CNc1cc(-c2cc(C)ccc2F)nc(N)n1 [Example 200, 6-(2-fluoro-5-methylphenyl)-4-N-methylpyrimidine-2,4-diamine]"
5,< 200,"CNc1cc(-c2cc(C)ccc2OC)nc(N)n1 [Example 204, 6-(2-methoxy-5-methylphenyl)-4-N-methylpyrimidine-2,4-diamine]"
6,< 200,"CNc1cc(-c2cc(F)ccc2Cl)nc(N)n1 [Example 205, 6-(2-chloro-5-fluorophenyl)-4-N-methylpyrimidine-2,4-diamine]"
7,< 200,"CNc1cc(-c2cc(C#N)ccc2F)nc(N)n1 [Example 206, 3-[2-amino-6-(methylamino)pyrimidin-4-yl]-4-fluorobenzonitrile]"
8,< 200,"CNc1cc(-c2cc(OC)ccc2Cl)nc(N)n1 [Example 207, 6-(2-chloro-5-methoxyphenyl)-4-N-methylpyrimidine-2,4-diamine]"
9,< 200,"CNc1cc(-c2cc(Cl)c(C)cc2F)nc(N)n1 [Example 214, 6-(5-chloro-2-fluoro-4-methylphenyl)-4-N-methylpyrimidine-2,4-diamine]"
10,< 200,"Cc1cc(-c2cc(NC3CC3)nc(N)n2)c(C)cc1F [Example 216, 4-N-cyclopropyl-6-(4-fluoro-2,5-dimethylphenyl)pyrimidine-2,4-diamine]"
11,< 200,"COc1cc(C)c(-c2cc(NC3CC3)nc(N)n2)cc1C [Example 217, 4-N-cyclopropyl-6-(4-methoxy-2,5-dimethylphenyl)pyrimidine-2,4-diamine]"
12,< 200,"Cc1ccc(C)c(-c2cc(NC3CC3)nc(N)n2)c1 [Example 218, 4-N-cyclopropyl-6-(2,5-dimethylphenyl)pyrimidine-2,4-diamine]"
13,< 200,"CCNc1cc(-c2cc(Cl)ccc2C)nc(N)n1 [Example 221, 6-(5-chloro-2-methylphenyl)-4-N-ethylpyrimidine-2,4-diamine]"
14,< 200,"Cc1cc(-c2cc(NCCc3ccc(Cl)cc3)nc(N)n2)c(C)cc1F [Example 223, 4-N-[2-(4-chlorophenyl)ethyl]-6-(4-fluoro-2,5-dimethylphenyl)pyrimidine-2,4-diamine]"
15,< 200,"Cc1ccc(C)c(-c2cc(NCCc3ccc(Cl)cc3)nc(N)n2)c1 [Example 224, 4-N-[2-(4-chlorophenyl)ethyl]-6-(2,5-dimethylphenyl)pyrimidine-2,4-diamine]"
16,< 200,"CNc1cc(-c2ccc(/C=C/C(=O)O)cc2)nc(N)n1 [Example 233, (2E)-3-{4-[2-amino-6-(methylamino)pyrimidin-4-yl]phenyl}prop-2-enoic acid]"
17,< 200,"Cc1cccc(-c2cc(NCC3CN(C(=O)OC(C)(C)C)C3)nc(N)n2)c1C [Example 234, tert-butyl 3-({[2-amino-6-(2,3-dimethylphenyl)pyrimidin-4-yl]amino}methyl)-azetidine-1-carboxylate]"
18,< 200,"Nc1nc(NC2CC2)cc(-c2ccc3[nH]ccc3c2)n1 [Example 235, 4-N-cyclopropyl-6-(1H-indol-5-yl)pyrimidine-2,4-diamine]"
19,< 200,"Cc1cccc(-c2cc(NCC(C)(C)CNC(=O)OC(C)(C)C)nc(N)n2)c1C [Example 239, tert-Butyl (3-((2-amino-6-(2,3-dimethylphenyl)pyrimidin-4-yl)amino)-2,2-dimethyl-propyl)carbamate]"
20,< 200,"CNc1cc(-c2cc(Cl)c(OC)cc2C)nc(N)n1 [Example 240, 6-(5-chloro-4-methoxy-2-methylphenyl)-4-N-methylpyrimidine-2,4-diamine]"
21,< 200,"Cc1c(Cl)cccc1-c1cc(NC(C)Cc2c[nH]c3ccccc23)nc(N)n1 (centres unmarked) [Example 243, 6-(3-chloro-2-methylphenyl)-4-N-[1-(1H-indol-3-yl)propan-2-yl]pyrimidine-2,4-diamine]"

row,IC50 [nM],SMILES
1,< 200,"Cc1cccc(-c2cc(NCCOc3ccccc3Cl)nc(N)n2)c1C [Example 247, 4-N-[2-(2-chlorophenoxy)ethyl]-6-(2,3-dimethylphenyl)pyrimidine-2,4-diamine]"
2,< 200,"Cc1cccc(-c2cc(NCCc3nc4cc(Cl)ccc4[nH]3)nc(N)n2)c1C [Example 248, 4-N-[2-(5-chloro-1H-1,3-benzodiazol-2-yl)ethyl]-6-(2,3-dimethylphenyl)pyrimidine-2,4-diamine]"
3,< 200,"Cc1cccc(-c2cc(NCC(C)Oc3cccnc3)nc(N)n2)c1C (centres unmarked) [Example 250, 6-(2,3-dimethylphenyl)-4-N-[2-(pyridin-3-yloxy)propyl]pyrimidine-2,4-diamine]"
4,< 200,"Cc1cccc(-c2cc(NCc3ccc4[nH]ncc4c3)nc(N)n2)c1C [Example 251, 6-(2,3-dimethylphenyl)-4-N-(1H-indazol-5-ylmethyl)pyrimidine-2,4-diamine]"
5,< 200,"COc1cc(CNc2cc(-c3cccc(C)c3C)nc(N)n2)ccn1 [Example 253, 6-(2,3-dimethylphenyl)-4-N-[(2-methoxypyridin-4-yl)methyl]pyrimidine-2,4-diamine]"
6,< 200,"CNc1cc(-c2cccc(C#N)c2C)nc(N)n1 [Example 258, 3-[2-amino-6-(methylamino)pyrimidin-4-yl]-2-methylbenzonitrile]"
7,< 200,"CNc1cc(-c2cccc3c2OCC3)nc(N)n1 [Example 261, 6-(2,3-dihydro-1-benzofuran-7-yl)-4-N-methylpyrimidine-2,4-diamine]"
8,< 200,"CNc1cc(-c2cc(S(=O)(=O)N3CCOCC3)ccc2C)nc(N)n1 [Example 262, 4-N-methyl-6-[2-methyl-5-(morpholine-4-sulfonyl)phenyl]pyrimidine-2,4-diamine]"
9,< 200,"Nc1nc(NCCc2ccc(Cl)cc2)cc(-c2cccc(Cl)c2Cl)n1 [Example 263, 4-N-[2-(4-chlorophenyl)ethyl]-6-(2,3-dichlorophenyl)pyrimidine-2,4-diamine]"
10,< 200,"Cc1cccc(-c2cc(NCCc3cccnc3)nc(N)n2)c1C [Example 268, 6-(2,3-dimethylphenyl)-4-N-[2-(pyridin-3-yl)ethyl]pyrimidine-2,4-diamine]"
11,< 200,"Cc1cccc(-c2cc(NCCNC(=O)OC(C)(C)C)nc(N)n2)c1C [Example 271, tert-butyl N-(2-{[2-amino-6-(2,3-dimethylphenyl)pyrimidin-4-yl]amino}ethyl)-carbamate]"
12,< 200,"Cc1cccc(-c2cc(NCCN(C)C(=O)OC(C)(C)C)nc(N)n2)c1C [Example 274, tert-butyl N-(2-{[2-amino-6-(2,3-dimethylphenyl)pyrimidin-4-yl]amino}ethyl)-N-methylcarbamate]"
13,< 200,"Cc1cccc(-c2cc(NCc3ccc(S(C)(=O)=O)cc3)nc(N)n2)c1C [Example 279, 6-(2,3-dimethylphenyl)-4-N-[(4-methanesulfonylphenyl)methyl]pyrimidine-2,4-diamine]"
14,< 200,"Cc1cccc(-c2cc(NCc3ccc(N4CCN(C)CC4)cc3)nc(N)n2)c1C [Example 280, 6-(2,3-dimethylphenyl)-4-N-{[4-(4-methylpiperazin-1-yl)phenyl]methyl}pyrimidine-2,4-diamine]"
15,< 200,"Cc1cccc(-c2cc(NCC3CCN(C(=O)OC(C)(C)C)CC3)nc(N)n2)c1C [Example 283, tert-butyl 4-({[2-amino-6-(2,3-dimethylphenyl)pyrimidin-4-yl]amino}methyl)-piperidine-1-carboxylate]"
16,< 200,"CC(=O)NCCCCNc1cc(-c2cccc(Cl)c2Cl)nc(N)n1 [Example 303, N-(4-{[2-Amino-6-(2,3-dichlorophenyl)pyrimidin-4-yl]amino}butyl)acetamide]"
17,< 200,"Nc1nc(NCc2ccc(-c3csnn3)cc2)cc(-c2cccc(Cl)c2Cl)n1 [Example 305, 6-(2,3-Dichlorophenyl)-4-N-{[4-(1,2,3-thiadiazol-4-yl)phenyl]methyl}pyrimidine-2,4-diamine]"
18,< 200,"C=CC(=O)Nc1cccc(-c2cc(NC)nc(N)n2)c1 [Example 309, N-{3-[2-Amino-6-(methylamino)pyrimidin-4-yl]phenyl}prop-2-enamide]"
19,< 200,"CNc1cc(-c2cccc(NC(=O)/C=C/c3ccccc3)c2)nc(N)n1 [Example 310, (2E)-N-{3-[2-Amino-6-(methylamino)pyrimidin-4-yl]phenyl}-3-phenylprop-2-enamide]"
20,< 200,"C=CC(=O)Nc1cccc(-c2cc(NC)nc(N)n2)c1C [Example 311, N-{3-[2-Amino-6-(methylamino)pyrimidin-4-yl]-2-methylphenyl}prop-2-enamide]"
